In patent publication US20260035339A1, “TETRAHYDRONAPHTHALENE DERIVATIVE” (ATRANSEN PHARMA LTD., priority 2022, published 2026):

Key:
human LAT1 = human LAT1 (Homo sapiens, UniProt Q01650); test: [14C]L-leucine uptake inhibition test using human-LAT1 stably expressing HEK293 cell line; assay type: cell-based; parameters: having full-length cDNA of human LAT1 or LAT2 inserted under a promoter of CMV; expressed in transfected cells; key to Assay Data: degree of [14C]L-leucine uptake inhibition compared with BCH: a test compound having a higher inhibitory effect than BCH is denoted by A; a test compound having the same inhibitory effect as BCH is denoted by B; a test compound having a lower inhibitory effect than BCH is denoted by C; conditions: for Assay Data: degree of [14C]L-leucine uptake inhibition compared with BCH: compound (racemic form) and BCH at 0.1, 1.0, 10 μM, 1 μM [14C]L-leucine, 1 minute, Na+-free HBSS
Chain of human LAT1 (Q01650 whole entry): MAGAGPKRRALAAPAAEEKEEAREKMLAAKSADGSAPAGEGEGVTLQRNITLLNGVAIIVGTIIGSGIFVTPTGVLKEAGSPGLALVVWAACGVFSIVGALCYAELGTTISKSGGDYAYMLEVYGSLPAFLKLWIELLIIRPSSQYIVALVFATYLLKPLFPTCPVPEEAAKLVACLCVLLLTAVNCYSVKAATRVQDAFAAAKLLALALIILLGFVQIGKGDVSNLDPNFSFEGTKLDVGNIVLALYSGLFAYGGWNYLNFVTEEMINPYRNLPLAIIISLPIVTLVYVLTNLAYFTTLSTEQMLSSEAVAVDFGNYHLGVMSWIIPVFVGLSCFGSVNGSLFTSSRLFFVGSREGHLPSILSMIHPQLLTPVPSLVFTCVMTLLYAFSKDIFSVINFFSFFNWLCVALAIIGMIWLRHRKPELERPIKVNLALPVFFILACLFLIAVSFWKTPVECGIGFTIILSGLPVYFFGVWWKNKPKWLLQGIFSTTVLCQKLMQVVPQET
Chain of human LAT1 (P08195 102-630 partner): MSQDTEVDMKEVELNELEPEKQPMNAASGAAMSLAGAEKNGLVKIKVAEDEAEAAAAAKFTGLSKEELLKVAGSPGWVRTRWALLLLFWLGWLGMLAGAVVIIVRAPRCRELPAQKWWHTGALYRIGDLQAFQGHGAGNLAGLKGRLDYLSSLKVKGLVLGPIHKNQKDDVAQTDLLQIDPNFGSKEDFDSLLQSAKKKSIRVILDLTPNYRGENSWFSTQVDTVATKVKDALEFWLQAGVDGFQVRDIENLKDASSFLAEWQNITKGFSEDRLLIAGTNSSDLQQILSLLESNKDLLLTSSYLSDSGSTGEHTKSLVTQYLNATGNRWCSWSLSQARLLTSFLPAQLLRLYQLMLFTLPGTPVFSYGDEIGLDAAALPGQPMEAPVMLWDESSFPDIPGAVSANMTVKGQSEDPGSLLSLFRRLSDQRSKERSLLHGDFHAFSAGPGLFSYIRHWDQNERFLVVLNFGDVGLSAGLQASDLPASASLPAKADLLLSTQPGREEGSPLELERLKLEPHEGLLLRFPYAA
Text: HEK293 cells stably expressing human LAT1 and LAT2 were produced, respectively.
A shuttle vector DNA (LAT1: pcDNA3.1(+) -hLAT1, LAT2: pcDNA3.1(+) -hLAT2; expression vector pcDNA3.1 (+) was produced by Invitrogen Corp.) having ampicillin and neomycin resistance markers and having full-length cDNA of human LAT1 or LAT2 inserted under a promoter of CMV (cytomegalovirus) was constructed. This vector was transfected into the HEK293 cells by a method using Lipofectamine (registered trademark) 2000 (Invitrogen Corp.) according to the manufacturer's instructions. Thereafter, stably expressing cell clones of transgene were selected by a limiting dilution method in the presence of 0.9 mg/mL of Geneticin (registered trademark), and among the obtained cell clones, cell clones having a high uptake of [^14C]L-leucine and maintaining stable expression even after 10 passages were obtained. These cells were used for evaluating affinity and selectivity for LAT1 and LAT2.
1-1. It has been confirmed that LAT1 is responsible for L-leucine uptake in the absence of sodium ions in the human-LAT1 stably expressing HEK293 cell line. The human-LAT1 stably expressing HEK293 cell line was seeded in a 24-well plate at 1×10^5 Cell/Well, and the [^14C]L-leucine uptake inhibition test using the compound was performed after 48 hours. After the medium was removed and the cells were washed with Hank's balanced salt solution (Na^+-free HBSS) not containing sodium ions, the cells were cultured in Na^+-free HBSS for 10 minutes. Thereafter, 1 μM of [^14C]L-leucine was taken up in Na^+-free HBSS in the presence of a test compound (0.1, 1.0, 10, 0 μM in each case), which is a racemic form, for 1 minute, and then the cells were washed three times with ice-cooled Na^+-free HBSS. To the well, 500 μL of 1 M NaOH was added, and after 30 minutes, the cells were lysed, and the cell lysate was collected. The amount of [^14C]L-leucine in the cell lysate was determined using a liquid scintillator. The amount of protein in the cell lysate was measured using BCA Assay Kit (Thermofisher Scientific), and the uptake amount of [^14C]L-leucine per 1 mg of protein in the cell per minute was calculated.
The degree of LAT1 inhibition of the compound obtained in the present invention was compared with BCH (BCH, 2-aminobicyclo-(2,2,1)-heptane-2-carboxylic acid), which is an existing LAT1 inhibitor. In the [^14C]L-leucine uptake inhibition test described above, the degrees of inhibition of [^14C]L-leucine uptake inhibition using the compound (racemic form) obtained in Examples and BCH (0.1, 1.0, 10, 0 μM for both) were compared. […] In the table, a test compound having a higher inhibitory effect than BCH is denoted by A, a test compound having the same inhibitory effect as BCH is denoted by B, and a test compound having a lower inhibitory effect than BCH is denoted by C.

[1] = system: Mouse colorectal cancer-derived CT26 cells; test: Cell proliferation inhibitory effect using mouse colorectal cancer cells (CCK-8 assay); assay type: cell-based; conditions: 72 hours compound treatment, read-out: Evaluation of IC50 (proliferation inhibition rate of 50%)
Description: Mouse colorectal cancer-derived CT26 cells were adjusted to […], seeded in a 96-well plate at 1000 cells/well, and cultured in a 10% fetal bovine serum-added RPMI 1640 medium at 5% CO2 and 37° C. The culture medium was changed 24 hours after the start of the culture, and the medium containing the compound of Example was replaced to examine the action of the compound on cell proliferation. As the compound, a concentration of 0.01, 0.03, 0.1, 0.3, 1, 3, 10, or 30 μM was used. As a control, the cells were cultured in a medium containing no compound. The number of cells was evaluated by CCK-8 assay (Cell Counting Kit-8, DOJINDO LABORATORIES) 72 hours after the start of the compound treatment, and the compound concentration (IC50 value) giving a proliferation inhibition rate of 50% as compared with the control was calculated.

Row | Assay Data: degree of [14C]L-leucine uptake inhibition compared with BCH (human LAT1) | IC50 [1] | [14C]L-leucine uptake inhibition via LAT1 (in words) (human LAT1; 0.1 to 10 μM) | LAT1 inhibitory effect, compounds singled out (in words) (human LAT1; same test as Table 1) | Compound
1 | A | ≤ 900 nM | – | – | Cl.NC1(C(=O)O)CCc2ccc(Oc3ccccc3-c3c(F)c(F)c(F)c(F)c3F)cc2C1 (stereo not shown) [Example 1-64, 2-carboxy-7-((2′,3′,4′,5′,6′-pentafluoro-[1,1′-biphenyl]-2-yl)oxy)-1,2,3,4-tetrahydronaphthalene-2-aminium chloride]
2 | A | ≤ 900 nM | – | – | Cl.NC1(C(=O)O)CCc2ccc(Oc3ccccc3-c3cc(F)cc(Cl)c3)cc2C1 (stereo not shown) [Example 1-66, 2-Carboxy-7-((3′-chloro-5′-fluoro-[1,1′-biphenyl]-2-yl)oxy)-1,2,3,4-tetrahydronaphthalene-2-aminium chloride]
3 | B | – | – | – | NC1(C(=O)O)CCc2cc(Oc3ccc(-c4cccnc4)cc3)ccc2C1 (stereo not shown) [Example 2-2, 3-(4-((6-ammonio-6-carboxy-5,6,7,8-tetrahydronaphthalene-2-yl)oxy)phenyl) pyridine-1-ium chloride]
4 | A | ≤ 900 nM | – | – | Cl.NC1(C(=O)O)CCc2ccc(Oc3ccccc3-c3ccc(F)c(F)c3)cc2C1 (stereo not shown) [Example 1-56, 2-carboxy-7-((3′,4′-Difluoro-[1,1′-Biphenyl]-2-yl)oxy)-1,2,3,4-tetrahydronaphthalene-2-aminium chloride]
5 | A | ≤ 900 nM | – | – | Cl.NC1(C(=O)O)CCc2ccc(Oc3cccc4cccc(-c5ccccc5)c34)cc2C1 (stereo not shown) [Example 1-61, 2-carboxy-7-((8-phenylnaphthalen-1-yl)oxy)-1,2,3,4-tetrahydronaphthalen-2-aminium chloride]
6 | A | ≤ 900 nM | – | – | CCc1cccc(-c2ccccc2Oc2ccc3c(c2)CC(N)(C(=O)O)CC3)c1.Cl (stereo not shown) [Example 1-47, 2-carboxy-7-((3′-ethyl-[1,1′-biphenyl]-2-yl)oxy)-1,2,3,4-tetrahydronaphthalene-2-aminium chloride]
7 | A | ≤ 900 nM | – | – | Cl.NC1(C(=O)O)CCc2ccc(Oc3ccccc3-c3cc(F)cc(F)c3)cc2C1 (stereo not shown) [Example 1-65, 2-Carboxy-7-((3′,5′-difluoro-[1,1′-biphenyl]-2-yl)oxy)-1,2,3,4-tetrahydronaphthalene-2-aminium chloride]
8 | – | 900 to 5000 nM | – | – | NC1(C(=O)O)CCc2ccc(Oc3ccc([N+](=O)[O-])cc3)cc2C1 (stereo not shown) [Example 1-68, 2-carboxy-7-(4-nitrophenoxy)-1,2,3,4-tetrahydronaphthalene-2-aminium chloride]
9 | A | ≤ 900 nM | – | – | COc1cccc(-c2ccccc2Oc2ccc3c(c2)CC(N)(C(=O)O)CC3)c1.Cl (stereo not shown) [Example 1-39, 2-carboxy-7-((3′-methoxy-[1,1′-biphenyl]-2-yl)oxy)-1,2,3,4-tetrahydronaphthalene-2-aminium chloride]
10 | A | – | – | – | Cl.NC1(C(=O)O)CCc2cc(Oc3ccc4ccccc4c3)ccc2C1 (stereo not shown) [Example 2-1, 2-carboxy-6-(naphthalene-2-yloxy)-1,2,3,4-tetrahydronaphthalene-2-aminium chloride]
11 | A | ≤ 900 nM | – | – | COc1cccc2cccc(Oc3ccc4c(c3)CC(N)(C(=O)O)CC4)c12.Cl (stereo not shown) [Example 1-60, 2-carboxy-7-((8-methoxynaphthalen-1-yl)oxy)-1,2,3,4-tetrahydronaphthalen-2-aminium chloride]

The next lines start with the compound.

Row | Compound | Assay Data: degree of [14C]L-leucine uptake inhibition compared with BCH (human LAT1) | IC50 [1] | [14C]L-leucine uptake inhibition via LAT1 (in words) (human LAT1; 0.1 to 10 μM) | LAT1 inhibitory effect, compounds singled out (in words) (human LAT1; same test as Table 1)
12 | Cl.NC1(C(=O)O)CCc2ccc(Oc3cccc(-c4ccc5ccccc5c4)c3)cc2C1 (stereo not shown) [Example 1-13, 2-carboxy-7-(3-(naphthalene-2-yl)phenoxy)-1,2,3,4-tetrahydronaphthalene-2-aminium chloride] | A | – | – | –
13 | Cl.NC1(C(=O)O)CCc2ccc(Oc3cccc(-c4cccc(Cl)c4)c3)cc2C1 (stereo not shown) [Example 1-11, 2-carboxy-7-((3′-chloro-[1,1′-biphenyl]-3-yl)oxy)-1,2,3,4-tetrahydronaphthalene-2-aminium chloride] | A | – | – | –
14 | Cl.NC1(C(=O)O)CCc2ccc(Oc3cccc(-c4ccc(Cl)cc4)c3)cc2C1 (stereo not shown) [Example 1-10, 2-carboxy-7-((4′-chloro-[1,1′-biphenyl]-3-yl)oxy)-1,2,3,4-tetrahydronaphthalene-2-aminium chloride] | A | – | – | –
15 | Cl.NC1(C(=O)O)CCc2ccc(Oc3ccc(-c4ccccc4)cc3)cc2C1 (stereo not shown) [Example 1-12, 7-([1,1′-biphenyl]-4-yloxy)-2-carboxy-1,2,3,4-tetrahydronaphthalene-2-aminium chloride] | A | – | – | –
16 | Cl.NC1(C(=O)O)CCc2ccc(Oc3ccc4occc4c3)cc2C1 (stereo not shown) [Example 1-3, 7-(benzofuran-5-yloxy)-2-carboxy-1,2,3,4-tetrahydronaphthalene-2-aminium chloride] | A | – | – | –
17 | NC1(C(=O)O)CC2CCC1C2 (stereo not shown) [BCH, 2-aminobicyclo-(2,2,1)-heptane-2-carboxylic acid, reference compound] | – | – | weak | –
18 | CN(C)c1ccc2cc(Oc3ccc4c(c3)CC(N)(C(=O)O)CC4)ccc2c1 (stereo not shown) [Example 1-6, 2-amino-7-((6-(dimethylamino)naphthalene-2-yl)oxy)-1,2,3,4-tetrahydronaphthalene-2-carboxylic acid] | A | – | – | –
19 | CN(C)c1ccc2ccc(Oc3ccc4c(c3)CC(N)(C(=O)O)CC4)cc2c1 (stereo not shown) [Example 1-7, 2-amino-7-((7-(dimethylamino)naphthalene-2-yl)oxy)-1,2,3,4-tetrahydronaphthalene-2-carboxylic acid] | A | – | – | –
20 | Cl.NC1(C(=O)O)CCc2ccc(Oc3cccc(-c4ccccc4)c3)cc2C1 (stereo not shown) [Example 1-2, 7-([1,1′-biphenyl]-3-yloxy)-2-carboxy-1,2,3,4-tetrahydronaphthalene-2-aminium chloride] | A | – | – | –
21 | COc1ccc2ccc(Oc3ccc4c(c3)CC(N)(C(=O)O)CC4)cc2c1.Cl (stereo not shown) [Example 1-5, 2-carboxy-7-((7-methoxynaphthalene-2-yl)oxy)-1,2,3,4-tetrahydronaphthalene-2-aminium chloride] | A | – | – | –
22 | Cl.NC1(C(=O)O)CCc2ccc(Oc3cccc4ccccc34)cc2C1 (stereo not shown) [Example 1-4, 2-carboxy-7-(naphthalene-1-yloxy)-1,2,3,4-tetrahydronaphthalene-2-aminium chloride] | A | ≤ 900 nM | – | particularly remarkable effects
23 | NC1(C(=O)O)CCc2ccc(Oc3ccc4ncccc4c3)cc2C1 (stereo not shown) [Example 1-8, 2-amino-7-(quinoline-6-yloxy)-1,2,3,4-tetrahydronaphthalene-2-carboxylic acid] | A | – | – | –
24 | NC1(C(=O)O)CCc2ccc(Oc3cccc(-c4ccccn4)c3)cc2C1 (stereo not shown) [Example 1-9, 2-amino-7-(3-(pyridine-2-yl)phenoxy)-1,2,3,4-tetrahydronaphthalene-2-carboxylic acid] | A | – | – | –
